Test [1] has as its target human Cereblon WT GST-tagged protein (Homo sapiens (Human), UniProt Q96SW2). Put plainly: CRBN-binding affinity, HTRF (CEREBLON BINDING kit, CISBIO). To be noted: HTRF inhibitory activity. The method in brief:
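Compounds were mixed with GST-tagged human Cereblon WT protein, then with Thalidomide-Red tracer and GST Eu antibody, and binding was read by HTRF. Inhibition rate was calculated from 620 nm emission relative to blank control wells (no protein) and solvent control wells.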

The target in test [2] is IKZF1 (Homo sapiens (Human), UniProt Q13422+Q96SW2). Put plainly: Western blot, substrate protein expression in hPBMC: IKZF1. The test is classed as cell-based. To be noted: hPBMC, compound 500 nM, 24 hours, Western blot. Summed up: (§1)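 hPBMC, 1×10^6 cells/mL, 24 h compound exposure; RIPA lysis, BCA protein assay, SDS-PAGE, NC membrane immunoblot. Densitometry vs internal control → % protein remaining; degradation % = 100% − remaining; DC50 = conc. at 50% of DMSO band signal.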

Test [3] has as its target GSPT1 (Homo sapiens (Human), UniProt P15170+Q96SW2). In words: Western blot, substrate protein expression in hPBMC: GSPT1. The test is classed as cell-based. To be noted: hPBMC, compound 500 nM, 24 hours, Western blot. The method in brief:
as §1

In test [4] the test system is MM.1S cells (human multiple myeloma cells). In words: Tumor cell proliferation inhibition, CCK-8. To be noted: MM1.S, MM.1S cells, CCK-8, read-out: inhibitory activity (IC50, nM) MM.1S. The test is classed as cell-based. The method in brief: (§2)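 Seeding, 24 h wait, then treatment with a 10-point dose series (5-fold steps down from 10 μM). After the treatment period, CCK-8 reagent was added to assess viability, and IC50 was derived from the inhibition plot.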

Test [5] relates to CCRF-CEM (human acute lymphoblastic leukemia T-cells). In words: Tumor cell proliferation inhibition, CCK-8. To be noted: CCRF-CEM cells, CCK-8, read-out: inhibitory activity (IC50, nM) CCRF-CEM. The test is classed as cell-based. Summed up: as §2
The test system of test [6] is MM.1R cells (dexamethasone-resistant human multiple myeloma cells). Put plainly: Tumor cell proliferation inhibition, CCK-8. To be noted: MM.1R cells, CCK-8, read-out: inhibitory activity (IC50, nM) MM.1R. It counts as cell-based. The method in brief: as §2
The target of test [7] is IKZF3 (Homo sapiens (Human), UniProt Q96SW2+Q9UKT9). In words: Western blot, substrate protein expression in hPBMC: IKZF3. It counts as cell-based. To be noted: hPBMC, compound 500 nM, 24 hours, Western blot. Summed up:
as §1

For test [8], the system named is Jurkat cells (human T-cell leukemia cells). Put plainly: Tumor cell proliferation inhibition, CCK-8. To be noted: Jurkat cells, CCK-8, read-out: inhibitory activity (IC50, nM) Jurkat. The test is classed as cell-based. Summed up:
as §2

In test [9] the test system is TMD8 cells (human diffuse large B-cell lymphoma cells). Put plainly: Tumor cell proliferation inhibition, CCK-8. To be noted: TMD8 cells, CCK-8, read-out: inhibitory activity (IC50, nM) TMD8. The test is classed as cell-based. The method in brief:
as §2

Test [10] has as its system MDA-MB-231 cells (human breast adenocarcinoma cells). Put plainly: Tumor cell proliferation inhibition, CCK-8. It counts as cell-based. To be noted: MDA-MB-231 cells, CCK-8, read-out: inhibitory activity (IC50, nM) MDA-MB-231. The method in brief: as §2
Test [11] has as its system H146 cells (human small cell lung carcinoma cells). Put plainly: Tumor cell proliferation inhibition, CCK-8. It counts as cell-based. To be noted: NCI-H146, H146 cells, CCK-8, read-out: inhibitory activity (IC50, nM) H146. Summed up:
as §2

In test [12] the test system is CAL-62 (human thyroid carcinoma cells). Put plainly: Tumor cell proliferation inhibition, CCK-8. To be noted: CAL-62 cells, CCK-8, read-out: inhibitory activity (IC50, nM) CAL-62. It counts as cell-based. Summed up: as §2

The source of these data is patent publication US20250320193A1, “OXOISOINDOLINYL SUBSTITUTED PIPERIDINEDIONE DERIVATIVE AND USE THEREOF” (GLUETACS THERAPEUTICS (SHANGHAI) CO., LTD., priority 2022, published 2025).

Chain of IKZF3 (Q9UKT9 whole entry): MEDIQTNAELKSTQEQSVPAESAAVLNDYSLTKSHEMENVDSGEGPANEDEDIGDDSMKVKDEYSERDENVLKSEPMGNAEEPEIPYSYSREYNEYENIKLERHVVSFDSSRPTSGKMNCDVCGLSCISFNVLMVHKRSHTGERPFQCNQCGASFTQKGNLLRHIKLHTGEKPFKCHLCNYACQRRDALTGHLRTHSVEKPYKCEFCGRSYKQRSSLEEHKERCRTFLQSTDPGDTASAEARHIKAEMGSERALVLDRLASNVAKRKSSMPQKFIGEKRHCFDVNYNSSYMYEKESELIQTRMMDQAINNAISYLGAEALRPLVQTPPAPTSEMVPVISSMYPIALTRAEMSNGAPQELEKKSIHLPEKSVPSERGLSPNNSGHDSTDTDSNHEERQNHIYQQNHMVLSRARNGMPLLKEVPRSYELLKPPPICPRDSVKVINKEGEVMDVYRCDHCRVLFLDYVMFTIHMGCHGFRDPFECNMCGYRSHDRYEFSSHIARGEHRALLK
Chain of IKZF3 (Q96SW2 whole entry): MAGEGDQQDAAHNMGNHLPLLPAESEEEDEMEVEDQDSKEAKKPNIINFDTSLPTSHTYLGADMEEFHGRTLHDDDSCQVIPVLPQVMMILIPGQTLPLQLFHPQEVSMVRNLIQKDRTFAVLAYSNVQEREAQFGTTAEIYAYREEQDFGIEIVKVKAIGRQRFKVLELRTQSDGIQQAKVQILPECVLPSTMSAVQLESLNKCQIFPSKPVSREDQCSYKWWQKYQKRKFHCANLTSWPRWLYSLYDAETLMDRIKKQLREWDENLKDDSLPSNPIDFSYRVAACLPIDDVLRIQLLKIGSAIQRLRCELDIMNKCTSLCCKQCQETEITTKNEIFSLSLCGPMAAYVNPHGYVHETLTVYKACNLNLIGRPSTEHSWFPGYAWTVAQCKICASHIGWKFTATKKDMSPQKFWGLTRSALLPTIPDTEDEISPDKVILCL
Chain of IKZF3 (Q16531 whole entry partner): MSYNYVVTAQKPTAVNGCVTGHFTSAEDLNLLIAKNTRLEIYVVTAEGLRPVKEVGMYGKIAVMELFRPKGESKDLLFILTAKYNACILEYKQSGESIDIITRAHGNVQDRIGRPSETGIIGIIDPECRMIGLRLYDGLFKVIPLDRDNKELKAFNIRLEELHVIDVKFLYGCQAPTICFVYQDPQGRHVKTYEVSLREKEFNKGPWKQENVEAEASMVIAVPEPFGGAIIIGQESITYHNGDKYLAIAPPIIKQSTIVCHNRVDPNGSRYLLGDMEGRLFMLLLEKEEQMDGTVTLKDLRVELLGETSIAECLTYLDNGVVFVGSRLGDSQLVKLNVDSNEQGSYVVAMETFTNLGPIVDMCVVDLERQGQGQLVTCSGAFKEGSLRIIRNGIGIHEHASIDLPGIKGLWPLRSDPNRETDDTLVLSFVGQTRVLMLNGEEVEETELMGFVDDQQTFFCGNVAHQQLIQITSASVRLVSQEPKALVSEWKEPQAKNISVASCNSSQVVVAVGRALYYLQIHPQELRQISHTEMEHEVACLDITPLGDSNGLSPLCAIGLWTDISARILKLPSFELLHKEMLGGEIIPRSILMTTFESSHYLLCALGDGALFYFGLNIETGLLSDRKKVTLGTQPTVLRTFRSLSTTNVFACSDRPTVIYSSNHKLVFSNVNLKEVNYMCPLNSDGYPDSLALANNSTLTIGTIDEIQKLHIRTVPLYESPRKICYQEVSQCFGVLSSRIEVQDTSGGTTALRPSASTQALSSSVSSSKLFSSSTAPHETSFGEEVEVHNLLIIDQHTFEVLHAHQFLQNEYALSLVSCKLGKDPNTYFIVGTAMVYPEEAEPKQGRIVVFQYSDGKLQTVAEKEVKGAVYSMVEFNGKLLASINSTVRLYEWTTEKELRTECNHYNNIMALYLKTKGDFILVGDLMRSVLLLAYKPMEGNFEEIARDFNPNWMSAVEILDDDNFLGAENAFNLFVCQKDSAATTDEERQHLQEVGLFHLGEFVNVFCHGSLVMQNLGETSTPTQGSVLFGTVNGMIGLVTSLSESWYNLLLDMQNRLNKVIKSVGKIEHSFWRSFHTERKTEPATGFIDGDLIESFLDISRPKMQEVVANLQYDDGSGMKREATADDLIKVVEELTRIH
Chain of IKZF1 (Q13422 whole entry): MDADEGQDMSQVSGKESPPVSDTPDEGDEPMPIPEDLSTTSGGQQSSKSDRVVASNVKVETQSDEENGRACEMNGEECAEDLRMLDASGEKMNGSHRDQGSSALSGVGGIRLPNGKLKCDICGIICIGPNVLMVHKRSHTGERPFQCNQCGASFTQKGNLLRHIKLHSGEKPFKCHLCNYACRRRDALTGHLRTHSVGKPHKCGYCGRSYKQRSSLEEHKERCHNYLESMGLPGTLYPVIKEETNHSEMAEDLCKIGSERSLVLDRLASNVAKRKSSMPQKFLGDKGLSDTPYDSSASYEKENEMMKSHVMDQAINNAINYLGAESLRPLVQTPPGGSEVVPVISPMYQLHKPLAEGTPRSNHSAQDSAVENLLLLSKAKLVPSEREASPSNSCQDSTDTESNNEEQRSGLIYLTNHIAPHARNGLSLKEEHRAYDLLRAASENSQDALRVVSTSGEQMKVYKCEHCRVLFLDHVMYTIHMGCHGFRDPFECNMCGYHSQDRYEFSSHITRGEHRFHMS
Chain of IKZF1 (Q96SW2 whole entry): as the sequence (Q96SW2 whole entry) above
Chain of IKZF1 (Q16531 whole entry partner): as the sequence (Q16531 whole entry partner) above
Chain of human Cereblon WT GST-tagged protein (Q96SW2 whole entry): as the sequence (Q96SW2 whole entry) above
Chain of GSPT1 (P15170 whole entry): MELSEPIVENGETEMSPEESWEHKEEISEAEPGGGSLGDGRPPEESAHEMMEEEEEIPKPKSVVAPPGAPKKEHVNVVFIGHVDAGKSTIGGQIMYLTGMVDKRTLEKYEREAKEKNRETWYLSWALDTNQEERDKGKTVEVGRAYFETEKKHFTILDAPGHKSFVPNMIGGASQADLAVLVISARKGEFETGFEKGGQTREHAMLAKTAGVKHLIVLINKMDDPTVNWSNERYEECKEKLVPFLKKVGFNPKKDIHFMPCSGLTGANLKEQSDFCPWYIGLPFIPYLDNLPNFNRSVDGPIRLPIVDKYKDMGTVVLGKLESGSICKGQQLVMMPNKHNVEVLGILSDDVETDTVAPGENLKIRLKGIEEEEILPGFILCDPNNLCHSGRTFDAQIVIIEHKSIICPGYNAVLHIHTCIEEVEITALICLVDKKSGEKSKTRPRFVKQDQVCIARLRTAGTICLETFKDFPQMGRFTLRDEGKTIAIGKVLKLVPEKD
Chain of GSPT1 (Q96SW2 whole entry): as the sequence (Q96SW2 whole entry) above
Chain of GSPT1 (Q16531 whole entry partner): as the sequence (Q16531 whole entry partner) above

Turning to `O=C1CCC(N2Cc3cc(CN4CCN(C(c5ccc(Cl)cc5)c5ccc(Cl)cc5)CC4)ccc3C2=O)C(=O)N1` (stereo not drawn) [GT-03566, 3-(5-((4-(bis(4-chlorophenyl)methyl)piperazin-1-yl)methyl)-1-oxoisoindolin-2-yl)piperidine-2,6-dione], the IC50 in [1] lay in the range of 1000 to 1900 nM; in test [4], 500 to 1000 nM; in test [5], 10 to 50 nM; in test [6], 100 to 500 nM. In test [2], the “substrate protein remaining % IKZF1” value is listed as “A (A represents 0% ≤ substrate protein remaining % ≤ 50%)”. The “substrate protein remaining % GSPT1” value in test [3] is “A (A represents 0% ≤ substrate protein remaining % ≤ 50%)”. In addition, in test [7], the “substrate protein remaining % IKZF3” value was “A (A represents 0% ≤ substrate protein remaining % ≤ 50%)”.

Consider `O=C1CCC(N2Cc3c(ccc(CN4C[C@@H]5C[C@H]4CN5C(c4ccccc4)c4ccccc4)c3F)C2=O)C(=O)N1` (stereo partly drawn) [GT-03724, 3-(5-(((1S,4S)-5-benzhydryl-2,5-diazabicyclo[2.2.1]heptan-2-yl)methyl)-4-fluoro-1-oxoisoindolin-2-yl)piperidine-2,6-dione], for which the IC50 in test [1] was less than 500 nM; in [4], 10 to 50 nM; in test [5] it was 10 to 50 nM; in test [6], 10 to 50 nM. In addition, the “substrate protein remaining % IKZF1” value in test [2] is on record as “A (A represents 0% ≤ substrate protein remaining % ≤ 50%)”. Further, in test [3], the “substrate protein remaining % GSPT1” value is listed as “A (A represents 0% ≤ substrate protein remaining % ≤ 50%)”. Also, the “substrate protein remaining % IKZF3” value in test [7] is “A (A represents 0% ≤ substrate protein remaining % ≤ 50%)”.

In the case of `O=C1CCC(N2Cc3cc(CN4C5CCC4CN(C(c4ccccc4)c4ccccc4)C5)ccc3C2=O)C(=O)N1` (stereo not drawn) [GT-03837, 3-(5-((3-benzhydryl-3,8-diazabicyclo[3.2.1]octan-8-yl)methyl)-1-oxoisoindolin-2-yl)piperidine-2,6-dione], the IC50 in test [1] was less than 500 nM; in [4], 10 to 50 nM; in [6], 500 to 1000 nM. Also, in [2], the “substrate protein remaining % IKZF1” value was “B (B represents substrate protein remaining % > 50%)”. The “substrate protein remaining % GSPT1” value in test [3] is “A (A represents 0% ≤ substrate protein remaining % ≤ 50%)”. In addition, the “substrate protein remaining % IKZF3” value in test [7] is recorded as “A (A represents 0% ≤ substrate protein remaining % ≤ 50%)”.

Take `O=C1CCC(N2Cc3cc(CN4CCC(N(c5ccccc5)c5ccccc5)CC4)c(F)cc3C2=O)C(=O)N1` (stereo not drawn) [GT-04227, 3-(5-((4-(diphenylamino)piperidin-1-yl)methyl)-6-fluoro-1-oxoisoindolin-2-yl)piperidine-2,6-dione]: the half-maximal inhibitory concentration (IC50) in test [1] was 500 to 1000 nM; in test [4], less than 1 nM; in test [8], less than 1 nM; in test [9] it was 1 to 10 nM; in [10], 1 to 10 nM; in test [5], less than 1 nM. Besides, the values for the IC50 in test [11] and in test [12] were 1 to 10 nM and less than 1 nM, respectively. For the same compound, the “substrate protein remaining % IKZF1” value in [2] is given as “A (A represents 0% ≤ substrate protein remaining % ≤ 50%)”. Also, the “substrate protein remaining % GSPT1” value in [3] is reported as “A (A represents 0% ≤ substrate protein remaining % ≤ 50%)”. The “substrate protein remaining % IKZF3” value in test [7] was “A (A represents 0% ≤ substrate protein remaining % ≤ 50%)”.

For the compound `O=C1CCC(N2Cc3cc(CN4CCN(C(c5ccccc5)c5cccnc5)CC4)c(F)cc3C2=O)C(=O)N1` (stereo not drawn) [GT-04251, 3-(6-fluoro-1-oxo-5-((4-(phenyl(pyridin-3-yl)methyl)piperazin-1-yl)methyl)isoindolin-2-yl)piperidine-2,6-dione], the IC50 in test [1] was less than 500 nM; in test [4], 10 to 50 nM; in test [8], 50 to 100 nM; in test [9], 100 to 500 nM; in test [10], 100 to 500 nM; in [5], 10 to 50 nM. Further, the IC50 in [11] fell in the range of 100 to 500 nM; in [12] it was 10 to 50 nM. In addition, the “substrate protein remaining % IKZF1” value in test [2] is “A (A represents 0% ≤ substrate protein remaining % ≤ 50%)”. Besides, in test [3], the “substrate protein remaining % GSPT1” value is “A (A represents 0% ≤ substrate protein remaining % ≤ 50%)”. Also, the “substrate protein remaining % IKZF3” value in [7] is “A (A represents 0% ≤ substrate protein remaining % ≤ 50%)”.
